The text below walks through data of patent publication US20160271086A1, “METHODS AND COMPOSITIONS FOR INDUCING REGULATORY T-CELL GENERATION” (SLOAN-KETTERING INSTITUTE FOR CANCER RESEARCH, priority 2013, published 2016).

Assay [1] relates to T cells. To be noted: Wang et al. 2009; Tao et al. 2007; cited from earlier work.
Assay [2] concerns LPS response genes. As to the kind of experiment: Gene expression in DC (microarray, Relb qPCR). The format is cell-based, mouse. To be noted: 6 h. As to the method:
FIG. 4 depicts HDAC-inhibitory activity of butyrate decreases pro-inflammatory cytokine expression within DC to promote Treg induction: A) Histone acetylation in Flt3L-elicited DC from B6 mice treated with the indicated SCFA (500 μM) or TSA (10 nM) for 6 h followed by acid extraction of histones from isolated nuclei, SDS-PAGE and blotting with antibody for pan-acetylated H3. Total histone H3 served as a loading control; B) Induction of Foxp3 expression upon stimulation of naïve CD4+ T cells by CD3 antibody in the presence of SCFA or TSA, Flt3L-elicited DC and TGF-β; C) RelB gene expression quantified by qPCR in purified Flt3L-elicited DC from B6 mice treated for 6 h with SCFA or TSA, as in (A); and D) RelB gene expression quantified by qPCR in purified Flt3L-elicited DC from B6 mice treated with or without TSA in combination with, or in the absence of, butyrate at the indicated concentrations.
The data are shown as percent of CD4+ cells expressing Foxp3 after 4 days of culture. Data are representative of 2 independent experiments; error bars denote SEM.
On the technique in general: Real-time PCR tracks product formation cycle by cycle.

The test system of assay [3] is Flt3L-elicited DC. As to the kind of experiment: Foxp3 induction by DC pre-treated with SCFA or TSA for 6 h, washed, co-cultured with naïve CD4+ T cells. The format is cell-based, mouse. To be noted: DC pre-treated 6 h, then agent removed. As to the method: DC were expanded in vivo by subcutaneous injection of B16 melanoma cells secreting FLT3-ligand into the left hind flank of mice as indicated. Once tumors were visible, spleens from injected animals were dissociated in RPMI 1640 medium containing 1.67 U mL-1 liberase TL (Roche) and 50 μg mL-1 DNAse I (Roche) for 20 min at 37° C. with shaking EDTA was then added at a final concentration of 5 mM to stop digestion and the resulting homogenate was processed for CD11c+ cell isolation using the MACS mouse CD11c (N418) purification kit (Miltenyi Biotec).
In vitro Foxp3 induction assays were performed by co-culturing DC with 5.5×10^4 CD4+CD44loCD62LhiCD25-naïve T cells in the presence of 1 μg ml-1 of CD3 antibody, 1 ng mL-1 TGF-β, and 100 U ml-1 IL-2, in 96-well flat-bottom plates for 4 d. For Foxp3 induction in the presence of butyrate- or TSA-pretreated DC, TGF-β was used at 0.1 ng mL-1 final concentration. In vitro induction assays in the absence of DC were performed by incubating 5.5×10^4 naïve CD4+ T cells with 1 ng mL-1 TGF-β, 100 U ml-1 IL-2, and a 1:1 cell-to-bead ratio of CD3/CD28 T activator Dynabeads (Invitrogen). For in vitro suppression assays, 4×10^4 naïve CD4+ T cells were FACS-sorted from B6 mice and cultured with graded numbers of CD4+Foxp3+ Treg cells FACS-sorted from Foxp3GFP mice treated with antibiotics and with or without butyrate, in the presence of […] irradiated T cell-depleted splenocytes and 1 μg ml-1 CD3 antibody in a 96-well round-bottom plate for 80 h. Proliferation of T cells was assessed by [3H]-thymidine incorporation during the final 8 h of culture.

Assay [4] concerns dendritic cells. Kind of assay: Treg induction by dendritic cells treated with soluble or liposome encapsulated TSA. The format is cell-based. To be noted: DC treated 6 hrs with soluble or liposome encapsulated TSA, washed, incubated with naïve CD4+ T cells. From the text: TSA was encapsulated in lipid particles containing mixtures of lipids for release of contents only upon entry into cells. For details see Karve et al. Langmuir 2008, 24, 5679-5688. To monitor incorporation of TSA into liposomes, lipids were dissociated with hydrogenated Triton-X and monitored for increased UV absorption compared to free TSA and ‘empty’ liposomes. >85% of free TSA is incorporated into the lipid particles.
The ability of dendritic cells to induce Treg development in vitro after exposure to lipopsome encapsulated TSA was evaluated. Doubly bead-purified dendritic cells were treated for 6 hrs with soluble or liposome encapsulated TSA then washed and incubated with naïve CD4+ T cells. Pretreatment of DCs with TSA increased the generation of Foxp3+ cells relative to vehicle control (FIG. 11).

As to `CC(/C=C/C(=O)NO)=C\[C@@H](C)C(=O)c1ccc(N(C)C)cc1` [TSA, trichostatin A], the “Treg cell generation in vitro by acting on T cells” value in assay [1] was “potentiates”. For the same molecule, the “expression of LPS response genes including 1112, 116, and Relb in DCs” value in assay [2] was “systemic repression”. In assay [3], the “ability of pre-treated DCs to induce Foxp3 expression in naïve CD4+ T cells” value is listed as “potently induced”. Besides, the “generation of Foxp3+ cells relative to vehicle control” value in assay [4] is listed as “increased”.
